Measured values: patent US10385403B2, “DDR2 mutations in squamous cell lung cancer” (The Broad Institute, Inc., priority 2012, dated 2019)
Entries after “also recorded” stand apart in the source; their conditions may differ.

How the values were obtained:
[1] = tested on: Ba/F3 cells expressing DDR2 mutants; assay: Four-day proliferation of IL-3-independent Ba/F3 cells; assay type: cell-based; conditions: for Killing / proliferation of Ba/F3 cells expressing DDR2 mutants: single agent
Description: (§1) Cell Culture. A549, NCI-H2286, HCC-366 and NCI-H1703 cells were obtained from the core collection at the Dana Farber Cancer Institute, having previously been purchased from the ATCC and used to establish a collection of early passage lung cancer cell lines which were analyzed by fingerprinting and SNP arrays (32). All cells used for the experiments described in this manuscript were obtained from freezes made at that time. Lung cancer cell lines were grown in RPMI (Invitrogen) with 10% fetal calf serum, NIH-3T3 cells were grown in DMEM (Mediatech) with 10% serum and Ba/F3 cells in RPMI supplemented with 10% serum and IL-3 (BD Biosciences) at 10 ng/ml. For IL-3 withdrawal experiments Ba/F3 cells were collected via centrifugation, washed once in sterile PBS and then resuspended in media without IL-3. Colony formation assays in NIH-3T3 cells were performed in six-well plates in which 25,000 NIH-3T3 cells were plated in triplicate in 1 ml of 0.33% top agar on top of 2 ml of 0.5% bottom agar. After three weeks colonies were counted using the NIH ImageJ software.
(§2) Cell Proliferation and Viability Assays. […] Proliferation was measured four days later.

[2] = tested on: Src and STAT5 phosphorylation in DDR2 L63V-expressing Ba/F3 cells; assay: Immunoblots of phospho-Src and phospho-STAT5; assay type: cell-based; conditions: single agent or with nilotinib, AP24534 or dasatinib; two days
Description: Immunoblots: Immunoblots were performed using the Nupage system (Invitrogen) per the manufacturer's protocol. Cells were lysed in 1% NP-40 with protease (Roche) and phosphatase inhibitors (Calbiochem) and protein concentration assayed with the Bradford reagent (Bio-Rad). Primary antibodies used were Flag-M2 (Sigma), phospho-Y417-Src (Cell Signaling Technologies), phospho-Y694-STAT5 (Cell Signaling) and Actin (Santa Cruz). A DDR2 antibody was generated for this project by Bethyl Labs. Secondary HRP-conjugated antibodies were all obtained from Pierce and proteins detected by pico-ECL (Thermo Scientific). Images were imported into Adobe Illustrator using an Epson 4490 scanner. […] In all cases adjustment of brightness or contrast the adjustment was applied uniformly to the image as a whole.

[3] = tested on: SCC lines harboring DDR2 mutations (NCI-H2286, HCC-366); assay: Cell proliferation of DDR2-mutant SCC lines (Cell-Titer-Glo); assay type: cell-based
[4] = tested on: NCI-H2286 cells (DDR2 I638F)
Description: (§3) Cell Proliferation and Viability Assays. […] Kinase inhibitors were purchased from LC Labs or were synthesized by Nathanael Gray's laboratory at Harvard Medical School.

[5] = tested on: HCC-366 cells (DDR2 L239R)
Description: as §3

[6] = human, in vivo; cited from earlier work
[7] = tested on: HCC-366 cells (DDR2 L239R); conditions: previous report; cited from earlier work
[8] = tested on: DDR2 mutant cell lines; assay: Annexin V analysis 48 hours after addition of drug; assay type: cell-based; conditions: 48 hours after drug
[9] = tested on: NCI-H1703 SCC cell line (PDGFRA amplification); conditions: NCI-H1703, positive control line
Description: Cell Proliferation and Viability Assays. Cell proliferation was measured with the Cell-Titer-Glo reagent (Promega) per the manufacturer's instructions. For experiments with the SCC cell lines cells were plated in clear-bottomed 96 well plates at a density of 1500 cells per well. The following day the drug was added and cell proliferation was measured six days later for the SCC cell lines. For Ba/F3 cells were plated at 5000 cells per well and the drug added the same day. Proliferation was measured four days later. Proliferation measurements were made using a standard 96 well plate luminometer/plate reader. Data are shown as relative values in which the luminescence at a given drug concentration is compared to untreated cells of the same cell type.
Statistics: For proliferation and colony formation assays mean values from a minimum of triplicate samples are reported as well as standard errors as calculated by Microsoft Excel. IC50 values were obtained using Graph Pad Prism software.

[10] = tested on: NCI-H2286 xenografts; assay: Xenograft tumor size in nude mice; conditions: 50 mg/kg oral gavage, two weeks
[11] = tested on: DDR2 mutant cell lines; assay: Cell viability by trypan blue exclusion; assay type: cell-based
Description: as §2

[12] = tested on: NCI-H1703 xenografts; assay: Xenograft tumor size in nude mice; conditions: 50 mg/kg oral gavage, two weeks
[13] = tested on: NIH-3T3 cells expressing L63V DDR2; assay: Soft agar colony formation; assay type: cell-based; conditions: L63V DDR2, single application at plating
Description: as §1

Compound	Proliferation on addition of AZD0530 ([1]; Ba/F3 DDR2 L63V grown in 50 nM nilotinib)	Killing / proliferation of Ba/F3 cells expressing DDR2 mutants ([1]; without IL-3, four days)	Src and STAT5 phosphorylation [2]	Effect on proliferation at 50 nM ([1]; 50 nM, wild-type Ba/F3 or Ba/F3 expressing DDR2 mutations)	Proliferation of SCC lines harboring DDR2 mutations [3]	Increase of IC50 with ectopic DDR2 T654M gatekeeper mutation ([4]; NCI-H2286 expressing T654M in cis with I638F) [fold]	IC50 ([4]; read-out: IC50, inhibition of proliferation, NCI-H2286, six days) [nM]	Increase of IC50 with ectopic DDR2 T654M gatekeeper mutation ([5]; HCC-366 expressing T654M in cis with L239R) [fold]	IC50 ([5]; read-out: IC50, inhibition of proliferation, HCC-366, six days) [nM]	Toxicity in patients [6]	IC50 ([1]; mean over Ba/F3 lines expressing DDR2 mutants, without IL-3, four days, read-out: Mean calculated IC50) [nM]	Sensitivity rank among 83 NSCLC cell lines [7]	Cellular annexin V staining [8]	Sensitivity of proliferation [9]	Tumor size [10]	Cell death vs cell cycle arrest by trypan blue exclusion [11]	Tumor size [12]	Colony formation in soft agar [13]
CN1CCN(CCOc2cc(OC3CCOCC3)c3c(Nc4c(Cl)ccc5c4OCO5)ncnc3c2)CC1 [AZD0530]	marked reduction in proliferation	modest effect on the proliferation; also recorded: minimal toxicity	reduced Src and STAT5 phosphorylation in a dose-dependent fashion															
Cc1cn(-c2cc(NC(=O)c3ccc(C)c(Nc4nccc(-c5cccnc5)n4)c3)cc(C(F)(F)F)c2)cn1 [Nilotinib]		modest activity; also recorded: minimal toxicity		little effect on proliferation	inhibited the proliferation													
N-(2 ? chloro-6-methylphenyl)-2-[[6-[4-(2-hydroxyethyl)-1-piperazinyl]-2-methyl-4 ? pyrimidinyl]amino]-5-thiazolecarboxamide, monohydrate [Dasatinib]						35	139	209	140	myelosuppression and the development of pleural and pericardial effusions	680	most sensitive squamous cell lung cancer line	increase in cellular annexin V staining	sensitive	decrease in tumor size	cell death as opposed to cell cycle arrest	decrease in tumor size	inhibited
